The record followed here is patent US12252477B2, “Applications of known and novel cannabinoids” (Bessor Pharma, LLC, priority 2018, dated 2025).

SMILES strings stand for the structures.

The assay concerns the target T1, TRPV1 channels (Homo sapiens, UniProt Q8NER1).
T1 construct: expressed in transfected cells; host or cells: HEK TRex (HEK 293 T-REx) cells stably carrying a tetracycline-inducible TRPV1 transgene
The assay can be described thus: Calcium assay (Fluo-4) in HEK-TRPV1 cells, dose response comparison. The assay is classed as cell-based. Conditions: Fluo-4 loaded, 1 mM external calcium chloride, 0-20 seconds baseline, compound added at 20 seconds, FIGS. 1A-1D. Here is the method: Molecular Pharmacology, 2016, volume 90, pages 300-308) HEK 293 cells with TRPV1 channels have been used as model systems (P. Geppetti and M. Trevisani, Activation and sensitisation of the vanilloid receptor: role in gastrointestinal inflammation and function, British Journal of Pharmacology, 2004, volume 141, pages 1313-1320);
HEK TRexTRPV1 cultured in DMEM, 10% Fetal Bovine Serum, 2 mM L-glutamine, 10 microgramg/ml Blasticidin (Calbiochem, San Diego Calif.), […] Zeocin (InvivoGen, San Diego Calif.), followed by inducing indicated transgene expression using 1 microgram/ml Tetracycline for 16-24 hrs. Comparisons made to untransfected HEK cells or HEKTRexTRPV1 with or without induction.
Cells washed and incubated with 0.2 micromolar Fluo-4 [54] for 30 minutes at 37° C. in a standard modified Ringer's solution of the following composition (in mM): NaCl 145, KCl 2.8, CsCl 10, CaCl2 10, MgCl2 2, glucose 10, Hepes. NaOH 10, pH 7.4, 330 mOsm. Cells transferred to 96-well plates at 50,000 cells/well and stimulated as indicated. Calcium signals acquired using a Flexstation 3 (Molecular Devices, Sunnydale, USA). Data are analyzed according to the methods in 1. Diaz-Franulic, J. Caceres-Molina, R. V. Sepulveda, F. Gonzalez-Nilo, R. Latorre, Structure-Driven Pharmacology of Transient Receptor Potential Channel Vanilloid 1, Molecular Pharmacology, 2016, volume 90, pages 300-8. […]

T1 sequence (Q8NER1 whole entry): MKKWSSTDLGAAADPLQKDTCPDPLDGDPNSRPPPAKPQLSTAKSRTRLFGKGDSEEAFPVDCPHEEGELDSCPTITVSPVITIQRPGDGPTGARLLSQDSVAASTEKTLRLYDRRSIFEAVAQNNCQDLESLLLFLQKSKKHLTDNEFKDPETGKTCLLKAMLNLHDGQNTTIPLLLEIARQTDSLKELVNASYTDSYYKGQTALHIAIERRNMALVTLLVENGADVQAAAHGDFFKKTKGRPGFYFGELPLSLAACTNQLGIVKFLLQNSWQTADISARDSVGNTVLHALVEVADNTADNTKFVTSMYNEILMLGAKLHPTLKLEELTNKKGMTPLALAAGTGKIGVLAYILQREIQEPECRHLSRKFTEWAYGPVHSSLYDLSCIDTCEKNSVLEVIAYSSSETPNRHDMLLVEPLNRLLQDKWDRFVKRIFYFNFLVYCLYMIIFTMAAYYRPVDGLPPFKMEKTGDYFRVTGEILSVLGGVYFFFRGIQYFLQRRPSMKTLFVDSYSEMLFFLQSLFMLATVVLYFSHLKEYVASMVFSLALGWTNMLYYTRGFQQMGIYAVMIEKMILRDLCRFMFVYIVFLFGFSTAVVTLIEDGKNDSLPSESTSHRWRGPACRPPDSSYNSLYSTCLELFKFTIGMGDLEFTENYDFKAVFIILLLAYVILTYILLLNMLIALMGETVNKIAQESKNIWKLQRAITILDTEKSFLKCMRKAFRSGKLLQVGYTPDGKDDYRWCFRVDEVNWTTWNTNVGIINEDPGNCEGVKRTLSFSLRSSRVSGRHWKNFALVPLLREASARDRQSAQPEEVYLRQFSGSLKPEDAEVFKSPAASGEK

As to `C=C(C)[C@@H]1CCC(C)=C[C@H]1c1c(O)cc(CCCCC)cc1O` [cannabidiol (11, CBD), Cannabidiol], the ““biological finger print” and dose response on TRPV 1 channels (calcium signal), synthesized versus reference standard cannabidiol” value is “same “biological finger print” and dose response”.
